Experimental data: patent publication EP1948196B1, “USE OF TETRAORGANOSILICON COMPOUNDS” (Salama, Zoser B., priority 2005, dated 2007)
Converted amounts (≈) assume the structure as drawn. Like-named read-outs stand apart in the source and are kept apart here. Numbered stars: 1 amine (or outer) side, 2 acyl side, 3 side chain; on linkers, the order of the positions; unused ones are H or OH. Bridge positions count the residues as written; N and C are the ends. Peptide text beside a SMILES is read from it. I, II: the chains in the order shown. X2 = c1ccc([Si](O[*:1])(O[*:2])c2ccccc2)cc1

What was measured:
[1] = tested on: Lymphome; assay: Effect on lymphomas
[2] = tested on: Hepatitis-Viren; assay: Antiviral effect; details: in particular as vesicles holding antisense constructs
[3] = tested on: Rhino-Viren; assay: Antiviral effect; details: in particular as vesicles holding antisense constructs
[4] = tested on: colo205 (Kofon-Karzinom); assay: MTT test, triplicate, two-fold dilutions; type: cell-based; details: for IC50: Homo sapiens
Procedure: (§1) Die Silan wurden in Ethanol aufgelöst und in Zellkulturmedien in Konzentrationen von bis zu 500 µg/ml resuspendiert. Es wurden MTT Tests in dreifacher Ausführung durchgeführt, für welche doppelte Lösungen (7 Schritte) und colo205 (Kofon-Karzinom), BxPC3 (pankreatisches Adenokarzinom) sowie T47D (Brustkrebs) benutzt wurden.

[5] = tested on: BxPC3 (pankreatisches Adenokarzinom); assay: MTT test, triplicate, two-fold dilutions; type: cell-based; details: for IC50: Homo sapiens
Procedure: as §1

[6] = tested on: T47D (Brustkrebs); assay: MTT test, triplicate, two-fold dilutions; type: cell-based; details: for IC50: Homo sapiens, T47D, read-out: IC50 T47D
Procedure: as §1

[7] = tested on: Osteosarkome; assay: Effect on osteosarcomas
[8] = tested on: Krebszellen; assay: Mean IC50 over all cancer cell lines; type: cell-based; details: for IC50: read-out: IC50 Krebszellen (Durchschnitt ± SD)
Procedure: (§2) Die Silane 1, 5, 9, 10, 11, 13, 15, 16 wurden in Ethanol gelöst und in MTT Assays in einer anfänglichen Konzentration von 200 µg/ml (5 Lösungsschritte 200 - 12.5 µg/ml) verwendet. Die Platten wurde für eine Dauer.von 4 Tagen inkubiert und die Entwicklungsfähigkeit mithilfe des EZ4U Test bestimmt. Die IC50 Werte wurden ausgehend von Dosierungs-Reaktions-Linien berechnet Zelllinien: Colo 205 and HT29 - Kolonkarzinom; BxPC3 and MIAPaCa2 - Pankreaskrebs; CRO2B - karzinoid, A431 Epidermalkarzinom; normale Zellen: WI38 - humane embryonale Fibroblasten; NIH3T3 - mausartige Fibroblasten; IEC6 - mausartige Enterozyten.
(§3) Mittelwerte-IC50 für alle Krebs- oder normalen Zelllinien: […]

[9] = tested on: Normale Zellen; assay: Mean IC50 over all normal cell lines; type: cell-based; details: for IC50: read-out: IC50 Normale Zellen (Durchschnitt ± SD)
Procedure: as §2, §3

[10] = tested on: NIH3T3 - mausartige Fibroblasten; assay: MTT assay / EZ4U test, 4 days; type: cell-based; details: for IC50: Mus musculus
Procedure: as §2

[11] = tested on: MIAPaCa2 - Pankreaskrebs; assay: MTT assay / EZ4U test, 4 days; type: cell-based; details: for IC50: Homo sapiens
Procedure: as §2

[12] = tested on: A431 Epidermalkarzinom; assay: MTT assay / EZ4U test, 4 days; type: cell-based; details: for IC50: Homo sapiens
Procedure: as §2

[13] = tested on: Colo 205 - Kolonkarzinom; assay: MTT assay / EZ4U test, 4 days; type: cell-based; details: for IC50: Homo sapiens
Procedure: as §2

[14] = tested on: HT29 - Kolonkarzinom; assay: MTT assay / EZ4U test, 4 days; type: cell-based; details: for IC50: Homo sapiens
Procedure: as §2

[15] = tested on: CRO2B - karzinoid; assay: MTT assay / EZ4U test, 4 days; type: cell-based; details: for IC50: read-out: IC50 CR02B
Procedure: as §2

[16] = tested on: BxPC3 - Pankreaskrebs; assay: MTT assay / EZ4U test, 4 days; type: cell-based; details: for IC50: Homo sapiens
Procedure: as §2

[17] = tested on: IEC6 - mausartige Enterozyten; assay: MTT assay / EZ4U test, 4 days; type: cell-based; details: for IC50: Rattus norvegicus
Procedure: as §2

[18] = tested on: WI38 - humane embryonale Fibroblasten; assay: MTT assay / EZ4U test, 4 days; type: cell-based; details: for IC50: Homo sapiens
Procedure: as §2

[19] = tested on: IEC6 mausartige Enterozyten; assay: subG1 apoptotic fraction, propidium iodide, flow cytometry; type: cell-based; details: 50 µg/ml, 4 Tage
Procedure: (§4) Die Zellen (IEC6 mausartige Enterozyten; Panc1 Pankreaskrebszellen; Colo205 Kolonkarzinom) wurden mit 50 µg/ml Silanen inkubiert und nach 4-tägiger Aussetzung auf DNA eingefärbt (Propidiumiodid). Die SubG1 Zellteilung wurde mittels Durchflusscytometrie bestimmt.

[20] = tested on: Colo205 Kolonkarzinom; assay: as above; type: cell-based; details: 50 µg/ml, 4 Tage
Procedure: as §4

[21] = tested on: Panc1 Pankreaskrebszellen; assay: as above; type: cell-based; details: 50 µg/ml, 4 Tage
Procedure: as §4

[22] = tested on: Kälber-Aortenendothelzellinie BKEz-7; assay: tissue or blood; type: cell-based; details: for IC50: suspensions, 48 Stunden bei 37°C
Excerpt: Prüfung auf zytotoxisches Potential an Kälber-Aortenendothelzellinie BKEz-7
Als Marker für eine zytotoxische Wirkung wird bei Zellen der charakterisierten Kälber-Aortenendothelzellinie BKEz-7 die Hemmkonzentration ermittelt, bei der eine 50%-ige Hemmung der Zellproliferation erfolgt (im Vergleich zu Kontrollkulturen ohne Zusatz eines Zellinhibitors). Die resultierende Reduzierung der Zellzahl um 50% wird als IC 50 ausgedrückt. Die getesteten Silanverbindungen wurden als Suspensionen auf die Kulturen gegeben und 48 Stunden bei 37°C inkubiert. Zusätzlich erfolgten morphologische Kontrollen und Vitalitätsbestimmungen mittels dem Neutralrot-Test. Mit Ausnahme des Di(dodecanoyloxy)dimethylsilans standen alle Ergebnisse der morphologischen Untersuchungen in guter Übereinstimmung. […]

[23] = tested on: Basalzellkarzinome; assay: Effect on basal cell carcinomas
[24] = tested on: Maus; assay: Pharmacological observation in the mouse (central, vegetative and toxic effects, acute toxicity); type: in vivo
Outline: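 Mice given single doses of 5·10^-4, 1·10^-3 and 5·10^-3 mol/kg body weight and observed individually. Recorded: orienting lethal dose (oLD), motor activity, reactivity, skin and rectal temperature, and pupil motility.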

[25] = COLO 205, read-out: IC50 Colo205
[26] = COLO 205, up to 500 µg/ml, read-out: IC50 Colo205
[27] = BXPC-3, up to 500 µg/ml, read-out: IC50 BxPC3
[28] = NIH3T3, 200 - 12.5 µg/ml, 4 Tage, read-out: IC50 NIH3T3
[29] = MIA PaCa-2, 200 - 12.5 µg/ml, 4 Tage, read-out: IC50 MlAPaCa2
[30] = A-431, 200 - 12.5 µg/ml, 4 Tage, read-out: IC50 A431
[31] = COLO 205, 200 - 12.5 µg/ml, 4 Tage, read-out: IC50 Colo205
[32] = HT-29, 200 - 12.5 µg/ml, 4 Tage, read-out: IC50 HT29
[33] = BXPC-3, 200 - 12.5 µg/ml, 4 Tage, read-out: IC50 BxPC3
[34] = IEC-6, 200 - 12.5 µg/ml, 4 Tage, read-out: IC50 IEC6
[35] = WI-38, 200 - 12.5 µg/ml, 4 Tage, read-out: IC50 WI38

SMILES	subG1 apoptotische Zellteilung IEC6 [19]	subG1 apoptotische Zellteilung Colo205 [20]	subG1 apoptotische Zellteilung Panc1 [21]	IC50 [4, 26]	IC50 [5, 27]	IC50 ([6]; up to 500 µg/ml)	IC50 ([8]; mean over cancer cell lines)	IC50 ([9]; mean over normal cell lines)	IC50 [10, 28]	IC50 [11, 29]	IC50 [12, 30]	IC50 [13, 31]	IC50 [14, 32]	IC50 ([15]; 200 - 12.5 µg/ml, 4 Tage)	IC50 [16, 33]	IC50 [17, 34]	IC50 [18, 35]	Bedenkliche Toxizität [22]	IC50 [22]	Wirkung auf Basalzellkarzinome [23]	other results
C[C@H](N)C(=O)N[C@@H](C)C(=O)N[C@@H](C)C(=O)N[C@@H](C)C(=O)N[C@@H](C)C(=O)N[C@@H](C)C(=O)N[C@@H](C)C(=O)O[Si](OC(=O)[C@H](C)NC(=O)[C@H](C)NC(=O)[C@H](C)NC(=O)[C@H](C)NC(=O)[C@H](C)NC(=O)[C@H](C)NC(=O)[C@H](C)N)(c1ccccc1)c1ccccc1 [Diphenyl bis(heptaalanyl)silylester] (I: H-AAAAAAA / II: H-AAAAAAA; linker I:C-II:C via X2)																					Wirkung auf Lymphome [1]: zeigen eine Wirkung; Wirkung gegen Hepatitis-Viren [2]: zeigen eine Wirkung
CCCCCCCCCCCCCCC(=O)O[Si](OC(=O)CCCCCCCCCCCCCC)(c1ccccc1)c1ccccc1 [Si5, Di (pentadecanoyloxy) diphenylsilan]	6,35 ± 0,63	3,4 ± 0,28	52,8 ± 3,4																		Wirkung gegen Rhino-Viren [3]: zeigen eine Wirkung; IC50 [4, 25]: 70 µg/mL (≈ 105 µM); IC50 ([5]; BXPC-3, read-out: IC50 BxPC3): 60 µg/mL (≈ 90.2 µM); IC50 [6]: 20 µg/mL (≈ 30.1 µM); Wirkung auf Osteosarkome [7]: zeigen eine Wirkung; IC50 [8]: 34 µg/mL (≈ 51.1 µM); IC50 [9]: 41.3 µg/mL (≈ 62.1 µM); IC50 ([10]; NIH3T3, read-out: IC50 NIH3T3): 55 µg/mL (≈ 82.7 µM); IC50 ([11]; MIA PaCa-2, read-out: IC50 MlAPaCa2): 38.5 µg/mL (≈ 57.9 µM); IC50 ([12]; A-431, read-out: IC50 A431): 36.3 µg/mL (≈ 54.6 µM); IC50 [13, 25]: 43.8 µg/mL (≈ 65.9 µM); IC50 ([14]; HT-29, read-out: IC50 HT29): 40 µg/mL (≈ 60.1 µM); IC50 [15]: 35 µg/mL (≈ 52.6 µM); IC50 ([16]; BXPC-3, read-out: IC50 BxPC3): 25 µg/mL (≈ 37.6 µM); IC50 ([17]; IEC-6, read-out: IC50 IEC6): 32.5 µg/mL (≈ 48.9 µM); IC50 ([18]; WI-38, read-out: IC50 WI38): 36.5 µg/mL (≈ 54.9 µM)
CCCCCCCCCC(=O)O[Si](CC)(CC)OC(=O)CCCCCCCCC [Si9, Didecanoyloxy - diethylslan]	0,9 ± 0.0	32,1 ± 1,41	42,8 ± 1,6																		IC50 Colo205 ([4]; up to 500 µg/ml): 60 µg/mL (≈ 140 µM); IC50 BxPC3 ([5]; up to 500 µg/ml): 15 µg/mL (≈ 35 µM); IC50 T47D ([6]; up to 500 µg/ml): 40 µg/mL (≈ 93.3 µM); IC50 Krebszellen (Durchschnitt ± SD) ([8]; mean over cancer cell lines): 35,6 ± 6,0 µg/ml; IC50 Normale Zellen (Durchschnitt ± SD) ([9]; mean over normal cell lines): 29,5 ± 10,8 µg/ml; IC50 NIH3T3 ([10]; 200 - 12.5 µg/ml, 4 Tage): 34.4 µg/mL (≈ 80.2 µM); IC50 MlAPaCa2 ([11]; 200 - 12.5 µg/ml, 4 Tage): 37.5 µg/mL (≈ 87.5 µM); IC50 A431 ([12]; 200 - 12.5 µg/ml, 4 Tage): 29.4 µg/mL (≈ 68.6 µM); IC50 Colo205 ([13]; 200 - 12.5 µg/ml, 4 Tage): 40.6 µg/mL (≈ 94.7 µM); IC50 HT29 ([14]; 200 - 12.5 µg/ml, 4 Tage): 41.5 µg/mL (≈ 96.8 µM); IC50 CR02B ([15]; 200 - 12.5 µg/ml, 4 Tage): 31.5 µg/mL (≈ 73.5 µM); IC50 BxPC3 ([16]; 200 - 12.5 µg/ml, 4 Tage): 40.0 µg/mL (≈ 93.3 µM); IC50 IEC6 ([17]; 200 - 12.5 µg/ml, 4 Tage): 17.2 µg/mL (≈ 40.1 µM); IC50 WI38 ([18]; 200 - 12.5 µg/ml, 4 Tage): 37.0 µg/mL (≈ 86.3 µM)
CCCCCCCCCCCCCCCCCC(=O)O[Si](OC(=O)CCCCCCCCCCCCCCCCC)(c1ccccc1)c1ccccc1 [Si10, Di (octadecanoyloxy) diphenylsilan]	13,4 ± 0,42	43,9 ± 1,41	60,7 ± 0,2	60 µg/mL (≈ 80.1 µM)	15 µg/mL (≈ 20 µM)	15 µg/mL (≈ 20 µM)	21.9 µg/mL (≈ 29.2 µM)	20.4 µg/mL (≈ 27.2 µM)	22.2 µg/mL (≈ 29.6 µM)	37 µg/mL (≈ 49.4 µM)	21.9 µg/mL (≈ 29.2 µM)	30.6 µg/mL (≈ 40.8 µM)	27.5 µg/mL (≈ 36.7 µM)	18.5 µg/mL (≈ 24.7 µM)	20 µg/mL (≈ 26.7 µM)	17.2 µg/mL (≈ 23 µM)	21.8 µg/mL (≈ 29.1 µM)	-	84 µM	zeigen eine Wirkung	zentrale, vegetative und toxische Effekte (Verhaltensänderungen) ([24]; 1•10^-3 mol/kg): schwache Ataxie, Hyperaktivität und Piloerektion; zentrale, vegetative und toxische Effekte (Verhaltensänderungen) ([24]; 5•10^-3 mol/kg): schwache Ataxie; zentrale, vegetative und toxische Effekte (Verhaltensänderungen) ([24]; 5•10^-4 mol/kg): keine Verhaltensänderungen
CCCCCCCCCCCCCC(=O)O[Si](OC(=O)CCCCCCCCCCCCC)(c1ccccc1)c1ccccc1 [Si15, Di (tetradecanoyloxy) diphenylsilan]	2,9 ± 0,42	37,6 ± 0,21	48,6 ± 0,6	62 µg/mL (≈ 97.3 µM)	15 µg/mL (≈ 23.5 µM)	15 µg/mL (≈ 23.5 µM)	30 µg/mL (≈ 47.1 µM)	27.8 µg/mL (≈ 43.6 µM)	29.4 µg/mL (≈ 46.2 µM)	37 µg/mL (≈ 58.1 µM)	34.5 µg/mL (≈ 54.2 µM)	30 µg/mL (≈ 47.1 µM)	39.4 µg/mL (≈ 61.8 µM)	12.5 µg/mL (≈ 19.6 µM)	33.8 µg/mL (≈ 53.1 µM)	19.1 µg/mL (≈ 30 µM)	35 µg/mL (≈ 54.9 µM)	-	46 µM	zeigen eine Wirkung	zentrale, vegetative und toxische Effekte (Verhaltensänderungen) ([24]; 1•10^-3 mol/kg): Ataxie, Hyper-aktivität; zentrale, vegetative und toxische Effekte (Verhaltensänderungen) ([24]; 5•10^-3 mol/kg): schwache Ataxie, Piloerektion; zentrale, vegetative und toxische Effekte (Verhaltensänderungen) ([24]; 5•10^-4 mol/kg): keine Verhaltensänderungen
